For one experiment, the target named is T1, human TRPV1 (Homo sapiens, UniProt Q8NER1, M315I/T336M).
T1 construct: expressed in transfected cells; pcDNA3 control cells
As to the kind of experiment: Intracellular calcium (Fluo-4, FLIPR) activation of TRPV1 cells by GRAS compounds.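 As to all read-outs here: TRPV1-expressing cells, FLIPR fluorescence at 488/514 nm with baseline subtracted, sampled every 2 s for 10 min after adding compound.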 Particulars: for activation at 1000 µM / activation at 100 µM: read-out: V1 activation, % of agonist value. The class given is cell-based. A general note: Calcium assays in cells follow changes in intracellular calcium, usually with a dye or a luminescent sensor.

The target in the next experiment is T2, human TRPA1 (Homo sapiens, UniProt O75762, K186N/R3C/R58T).
T2 construct: expressed in transfected cells; pcDNA3 control cells
T2 sequence (O75762 whole entry R3C/R58T/K186N): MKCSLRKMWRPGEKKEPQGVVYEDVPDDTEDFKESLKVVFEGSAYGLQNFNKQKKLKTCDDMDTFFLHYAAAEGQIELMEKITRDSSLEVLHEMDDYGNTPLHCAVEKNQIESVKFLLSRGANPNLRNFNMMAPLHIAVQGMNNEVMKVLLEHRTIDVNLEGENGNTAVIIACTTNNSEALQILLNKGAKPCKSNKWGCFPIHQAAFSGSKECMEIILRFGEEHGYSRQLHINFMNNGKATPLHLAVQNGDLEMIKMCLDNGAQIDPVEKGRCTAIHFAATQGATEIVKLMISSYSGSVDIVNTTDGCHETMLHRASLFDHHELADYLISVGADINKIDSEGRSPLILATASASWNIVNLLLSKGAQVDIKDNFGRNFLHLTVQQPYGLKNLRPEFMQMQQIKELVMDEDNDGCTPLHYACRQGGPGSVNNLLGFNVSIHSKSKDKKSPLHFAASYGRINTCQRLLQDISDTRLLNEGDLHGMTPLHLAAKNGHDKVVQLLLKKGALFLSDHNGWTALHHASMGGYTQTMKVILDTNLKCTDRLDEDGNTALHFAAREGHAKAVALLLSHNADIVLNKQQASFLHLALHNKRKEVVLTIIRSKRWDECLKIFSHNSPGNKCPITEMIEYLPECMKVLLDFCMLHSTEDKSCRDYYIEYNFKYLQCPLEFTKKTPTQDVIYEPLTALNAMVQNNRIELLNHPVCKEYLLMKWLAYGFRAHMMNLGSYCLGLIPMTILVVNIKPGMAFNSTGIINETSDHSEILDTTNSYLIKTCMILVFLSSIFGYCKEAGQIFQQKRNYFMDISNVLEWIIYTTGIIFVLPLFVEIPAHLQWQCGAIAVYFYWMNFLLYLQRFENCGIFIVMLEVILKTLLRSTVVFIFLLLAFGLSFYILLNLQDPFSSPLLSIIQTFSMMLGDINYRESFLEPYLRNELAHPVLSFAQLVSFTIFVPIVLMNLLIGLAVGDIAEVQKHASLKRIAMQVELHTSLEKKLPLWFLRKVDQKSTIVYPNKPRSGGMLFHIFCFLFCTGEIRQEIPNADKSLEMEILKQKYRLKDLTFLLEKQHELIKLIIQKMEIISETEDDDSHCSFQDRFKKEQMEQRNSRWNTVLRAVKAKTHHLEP
As to the kind of experiment: Intracellular calcium (Fluo-4, FLIPR) activation of TRPA1 cells by GRAS compounds.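 As to all read-outs here: TRPA1-expressing cells, fluorescence read on a FLIPR Tetra (ex 488 nm, em 514 nm) every 2 s for 10 min after compound addition, baseline subtracted.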 Format: cell-based. Particulars: for activation at 1000 µM / activation at 100 µM: read-out: A1 activation, % of agonist value.

The next experiment has as its system TRPA1V1. As to the kind of experiment: Intracellular calcium (Fluo-4, FLIPR) activation of TRPA1V1 cells (co-expressing TRPA1 and TRPV1) by GRAS compounds.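 Also: HEK293 cells co-expressing TRPA1 and TRPV1, fluorescence read at 488/514 nm after baseline subtraction, recorded every 2 s over 10 min, ionomycin 10 µM and buffer as controls.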 The class given is cell-based, human.
[1] abbreviates: Table 1(a), 1 mM, relative to capsaicin 350 nM, average of three plates.
Where [2] appears, read: Table 1(a), 1 mM, relative to AITC 30 μM, average of three plates.
Where [3] appears, read: Table 1(b), 1 mM, relative to AITC 30 μM.
The mark [4] stands for this setting: Table 1(b), 1 mM, relative to capsaicin 350 nM.
The mark [5] stands for this setting: Table 1(a), relative to capsaicin 350 nM.
The mark [6] stands for this setting: Table 1(a), relative to AITC 30 μM.
The mark [7] stands for this setting: Table 1(c), 1 mM, relative to AITC 30 μM.
Where [8] appears, read: Table 1(a), 100 μM (*), relative to AITC 30 μM.

Like-named read-outs stand apart in the source and are kept apart here.

T1 sequence (Q8NER1 whole entry M315I/T336M): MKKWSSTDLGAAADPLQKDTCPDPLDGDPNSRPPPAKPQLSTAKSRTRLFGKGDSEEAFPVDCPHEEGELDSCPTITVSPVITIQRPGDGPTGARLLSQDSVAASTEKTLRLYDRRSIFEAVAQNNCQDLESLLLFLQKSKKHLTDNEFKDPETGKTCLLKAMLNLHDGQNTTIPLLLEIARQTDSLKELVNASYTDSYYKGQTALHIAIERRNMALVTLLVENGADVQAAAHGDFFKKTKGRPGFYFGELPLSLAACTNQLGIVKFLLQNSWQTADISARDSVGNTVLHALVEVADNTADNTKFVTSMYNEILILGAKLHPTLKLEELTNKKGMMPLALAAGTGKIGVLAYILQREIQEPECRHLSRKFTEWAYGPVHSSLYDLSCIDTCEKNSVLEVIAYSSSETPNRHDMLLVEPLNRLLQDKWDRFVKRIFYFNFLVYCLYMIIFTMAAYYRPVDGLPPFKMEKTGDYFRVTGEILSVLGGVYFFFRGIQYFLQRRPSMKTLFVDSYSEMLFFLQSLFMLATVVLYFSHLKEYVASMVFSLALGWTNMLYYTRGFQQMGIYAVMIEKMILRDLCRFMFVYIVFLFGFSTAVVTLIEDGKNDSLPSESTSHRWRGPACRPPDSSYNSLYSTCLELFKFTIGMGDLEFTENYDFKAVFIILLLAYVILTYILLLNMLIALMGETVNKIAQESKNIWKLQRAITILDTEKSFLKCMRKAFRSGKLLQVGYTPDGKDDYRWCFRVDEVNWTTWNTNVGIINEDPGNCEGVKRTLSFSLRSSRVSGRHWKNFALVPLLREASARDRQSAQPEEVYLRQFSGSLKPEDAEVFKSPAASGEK

Take `CCCc1ccccc1O` [2-Propylphenol]: the activation at 1000 µM was found to be 96.9% at human TRPV1 (setting [1]) and 126% at human TRPA1 (setting [2]). The “A1V1 activation, % of agonist value” in the experiment with TRPA1V1 (setting [2]) came out at 183.8%.
Turning to `CC(=O)OCc1ccc2c(c1)OCO2` [Piperonyl acetate], the activation at 1000 µM worked out at 20.9% at human TRPV1 and 62.7% on human TRPA1. In addition, the “A1V1 activation, % of agonist value” in the experiment with TRPA1V1 (setting [3]) is 78.00%.
As for `CC(C)=CCCC(C)CCO` (stereo not drawn) [Citronellol], the activation at 1000 µM at human TRPV1 (setting [4]) was 106%; at human TRPA1 (setting [3]), 102%. The “A1V1 activation, % of agonist value” with TRPA1V1 (setting [3]) worked out at 34.4%.
With `COc1cc(C2OCC(C)O2)ccc1O` (stereo not drawn) [Vanillin propylene glycol acetal], on human TRPV1 (setting [4]), the “V1 activation, % of agonist value” turned out to be 57.97%. Further, the “A1 activation, % of agonist value” on human TRPA1 (setting [3]) is reported as 76.21%. Besides, the “A1V1 activation, % of agonist value” with TRPA1V1 (setting [3]) amounted to 94.49%.
Turning to `O=Cc1ccc(O)cc1` [4-Hydroxybenzaldehyde], the activation at 100 µM was found to be 123% on human TRPV1 (setting [5]) and 80.4% at human TRPA1 (setting [6]). In addition, on human TRPA1 (setting [7]), the activation at 1000 µM came to 63%. Moreover, the entries for the “A1V1 activation, % of agonist value” in the experiment with TRPA1V1 (setting [8]) and with TRPA1V1 (setting [7]) were 163.2% and 60.3%, respectively.
As to `COC(=O)C1CCCCC1` [Methyl cyclohexanecarboxylate], the activation at 1000 µM stood at 69.5% at human TRPV1 (setting [4]) and 45.5% on human TRPA1 (setting [3]). Further, the “A1V1 activation, % of agonist value” with TRPA1V1 (setting [3]) was 85.17%.
`O=C(CCc1ccc(O)cc1)c1c(O)cc(O)cc1O` [Phloretin]: the activation at 100 µM on human TRPV1 (setting [5]) worked out at 122%; on human TRPA1 (setting [6]), 160%. Also, the “A1V1 activation, % of agonist value” with TRPA1V1 (setting [8]) came out at 174.3%.
Turning to `CC(C)CCOC(=O)CCc1ccco1` [Isoamyl 3-(2-furan)propionate], the “V1 activation, % of agonist value” at human TRPV1 (setting [4]) is given as 32.66%. Besides, the “A1 activation, % of agonist value” on human TRPA1 (setting [3]) turned out to be 123.3%. In the experiment on TRPA1V1 (setting [3]), the “A1V1 activation, % of agonist value” was 106.9%.
On to `C=CCSSSCC=C` [Allyl-trisulfide], for which the activation at 1000 µM on human TRPV1 (setting [1]) was found to be 32.9%; on human TRPA1 (setting [2]), 83.5%. Moreover, the “A1V1 activation, % of agonist value” with TRPA1V1 (setting [2]) turned out to be 89.08%.
As for `Cc1ccc(C(C)C)c(O)c1` [Thymol], the activation at 1000 µM was 106% at human TRPV1 (setting [4]) and 159% at human TRPA1 (setting [3]). The “A1V1 activation, % of agonist value” in the experiment with TRPA1V1 (setting [3]) was determined as 105.7%.
For `CCc1ccco1` [2-Ethylfuran], the activation at 100 µM at human TRPV1 (Table 1(i), relative to capsaicin 350 nM, […]) turned out to be 58.7%; on human TRPA1 (Table 1(i), relative to AITC 30 μM, […]), 1.2%. The “TRPV1 activation selectivity, in words” value on human TRPV1 (statement in description, see Table 1(i)) was “TRPV1 activators which do not modulate TRPA1 or TRPA1V1”. Further, the “A1V1 activation, % of agonist value” in the experiment with TRPA1V1 (Table 1(i), 100 μM (*), relative to AITC 30 μM or capsaicin 350 nM depending on compound, […]) stood at 1.8%.

Source of the values: patent US9427415B2, “Methods and compositions for modifying sensorial perception” (The Procter & Gamble Company, priority 2014, dated 2016).
